Measurements as given in US5162218A, “Conjugated polypeptides and methods for their preparation” (The Regents of the University of California, priority 1991, dated 1992).

Key:
[1] = target: T1, MOPC315 IgA Fab fragment (Mus musculus, UniProt P01729+P01822+P01844+P01878); experiment: Affinity labeling of Fab (incorporation of cleavable affinity labels); assay type: binding; settings: for % Fab labeled (without DNP-glycine) / label incorporated: Fab 10 μM; for % Fab labeled (without DNP-glycine): 1.5 equivalents aldehyde plus NaCNBH3, pH 7.0, 37° C., 20 hours, or 1.3 equivalents α-bromoketone, pH 9.0, 37° C., 16 hours; for % Fab labeled (with DNP-glycine): as without, in the presence of 10 mM competitive inhibitor DNP-glycine; for label incorporated: 1.5 or 1.3 equivalents of label, 37° C.; for non-specific labeling: in the presence of 10 mM DNP-glycine
T1 construct: Fab fragment, generated by treating the reduced and alkylated IgA with papain; made in house
T1 sequence (P01822+P01878 fused): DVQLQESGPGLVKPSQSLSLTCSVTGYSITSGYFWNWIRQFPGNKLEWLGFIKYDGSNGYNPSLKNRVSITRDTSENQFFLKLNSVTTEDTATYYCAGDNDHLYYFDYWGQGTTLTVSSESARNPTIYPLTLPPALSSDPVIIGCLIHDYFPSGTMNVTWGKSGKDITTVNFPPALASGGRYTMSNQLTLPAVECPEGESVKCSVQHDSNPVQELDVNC
T1 sequence (P01729+P01844 fused): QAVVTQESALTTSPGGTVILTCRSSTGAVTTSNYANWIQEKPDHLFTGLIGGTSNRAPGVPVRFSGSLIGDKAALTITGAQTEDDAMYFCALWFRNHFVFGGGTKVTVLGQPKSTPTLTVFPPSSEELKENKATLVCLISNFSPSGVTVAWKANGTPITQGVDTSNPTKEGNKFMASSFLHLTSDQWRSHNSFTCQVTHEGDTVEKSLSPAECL
Procedure: The strategy for introducing a thiol into the binding site of MOPC315 is outlined in FIG. 3. These steps were carried out with the Fab fragment, generated by treating the reduced and alkylated IgA with papain followed by affinity chromatography on DNP-coupled Sepharose 4B (Goetzl (1970) Biochemistry 9:1267). The Fab fragment (at 10 μM) was treated with either 1.5 equivalents of aldehydes 1 or 2 for one hour followed by 7.5 equivalents of NaCNBH3, in 0.2M sodium phosphate; pH 7.0, at 37° C. for 20 hours, or with 1.3 equivalents of α-bromoketones 3, 4, or 5 in 0.1M sodium bicarbonate, pH 9.0; at 37° C. for 16 hours. In both cases, the labeled Fab was purified by chromatography on Sephadex G-50 in 0.1M sodium phosphate, pH 7.3, and, after lyophilization, subsequent affinity chromatography on DNP-coupled Sepharose 4B (Goetzl, supra.) to remove unlabeled or non-specifically labeled Fab. The extent of derivatization was quantitated spectrophotometrically (for labels 1 and 2, λmax =360 nm, , ε=12,800 M^-1 cm^-1) and additionally, for labels 1 and 2, by incorporation of tritium from NaCNB^3 H3 (using 12 mCi/millimole NaCNB^3 H3). […] In both cases, less than 10% non-specific labeling occurred in the presence of 10 mM of the competitive inhibitor DNP-glycine.

[2] = target: T2, MOPC315 fluorescein-Fab adduct (S-thiopyridyl Fab labeled with 2, derivatized with N-fluoresceinthioureido-2-mercaptoethylamine) (Mus musculus, UniProt P01729+P01822); experiment: Fluorescence quenching binding assay; settings: 0.10 μM adduct, 50 mM NaCl, 50 mM sodium phosphate, pH 7.0, 10° C.; read-out: association constant (converted)
T2 construct: Fab fragment, generated by treating the reduced and alkylated IgA with papain; made in house
T2 sequence (P01822 19-137): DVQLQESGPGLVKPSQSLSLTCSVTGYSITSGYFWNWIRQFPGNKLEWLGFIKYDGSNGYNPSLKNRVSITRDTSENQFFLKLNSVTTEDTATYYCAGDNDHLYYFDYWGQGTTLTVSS
T2 sequence (P01729 20-129): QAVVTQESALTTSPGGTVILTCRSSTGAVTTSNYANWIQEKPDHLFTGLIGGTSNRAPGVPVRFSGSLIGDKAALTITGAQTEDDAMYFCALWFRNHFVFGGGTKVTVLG
T2 sequence (P01878 1-100 partner limits assumed): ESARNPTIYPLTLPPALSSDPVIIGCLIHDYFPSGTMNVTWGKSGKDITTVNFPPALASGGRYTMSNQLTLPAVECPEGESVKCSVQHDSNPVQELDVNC
T2 sequence (P01844 whole entry partner, the tested form may be a part): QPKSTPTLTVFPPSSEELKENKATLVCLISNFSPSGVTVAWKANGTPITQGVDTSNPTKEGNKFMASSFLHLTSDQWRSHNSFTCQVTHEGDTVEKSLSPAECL
Procedure: FIG. 7 illustrates the results of a fluorescence quenching binding assay for DNP-glycine with fluorescein-Fab adduct (.quadrature.) versus control with fluorescein plus underivatized Fab ( ). Fluorescence quenching experiments were carried at 10° C. using 492 nm for excitation and measuring emission at 521 nm. The fluorescein-Fab adduct was diluted with assay buffer (above) to 0.10 μM. Aliquots of 2,4-DNP-glycine were added and, after mixing, the fluorescence observed. Free N-fluoresceinthioureido-2-mercapthoethylamine and underivatized Fab, each at 0.10 μM, were treated in a similar experiment.
(§1) Fluorescence quenching experiments were carried out at 10° C. using 492 nm for excitation and measuring emission at 521 nm. The fluorescein-Fab adduct was diluted wi.:h assay buffer (50 mM NaCl. 50 mM sodium phosphate, pH 7.0) to 0.10 μM. Aliquots of 2,4-DNP-glycinewere added and, after mixing, the fluorescence observed. The association constant of DNP-glycine to the fluorescein-Fab adduct was determined to be 3.0×10^5 M^-1, almost identical to the KA of DNP-glycine to underivatized MOPC 315, 2.0×10^5 M^-1.

[3] = target: IgA MOPC315, underivatized; experiment: Association of DNP ligands with the underivatized antibody; assay type: binding; settings: underivatized MOPC 315
Procedure: The following studies were carried out on the IgA MOPC315, which binds substituted 2,4-dinitrophenyl (DNP) ligands with association constants ranging from 5×10^4 to 10^6 M^-1 (Haselkorn et al. (1974) Biochemistry 13:2210). Although a three-dimensional structure is not available, the antibody combining site has been characterized by spectroscopic methods (UV, fluorometry, NMR), chemical modification, and amino acid sequencing of the variable region. Moreover, earlier affinity-labeling studies with reagents of varying structures (Givol and Wilcheck (1977) Meth. Enzy. 46:479; Givol et al. (1971) Biochemistry 10:3461; and Strausbauch et al. (1971) Biochemistry 10:4342) defined a number of reactive amino acid side chains in the vicinity of the combining site.
as §1

[4] = target: T3, MOPC315 IgA Fab fragment, thiolated Fab labeled with 2 (Fab-SH, thiol tethered at residue 52H of the heavy chain) (Mus musculus, UniProt P01729+P01822); experiment: Ester cleavage (thiolysis) assay, fluorometric release of coumarin; assay type: biochemical
T3 construct: Fab fragment, generated by treating the reduced and alkylated IgA with papain; made in house
T3 sequence (P01822 19-137): as the sequence (P01822 19-137) above
T3 sequence (P01729 20-129): as the sequence (P01729 20-129) above
T3 sequence (P01878 1-100 partner limits assumed): as the sequence (P01878 1-100 partner limits assumed) above
T3 sequence (P01844 whole entry partner, the tested form may be a part): as the sequence (P01844 whole entry partner, the tested form may be a part) above
Procedure: (§2) Cleavage of DNP coumarin esters 14 and 15 by the thiol-containing antibodies was assayed in the presence and absence of 0.1 μM NaCl, 50 mM sodium phosphate, pH 7.0, with 24 μM dithiothreitol at 10° C. The release of free coumarin was quantitated fluorometrically, exciting at 355 nm and measuring emission at 455 nm. The S-thiopyridyl Fab was first dialyzed against assay buffer, 30 min. prior to the assays, an aliquot of the thiopyridyl Fab (0.15 mg in 0.19 ml) was reduced with 3.8 mM dithiothreitol at 20° C. For each assay, reduced, thiolated Fab (15 μg in 18.8 μl) was diluted with assay buffer (2.95 ml) so that the net concentrations of thiolated Fab and of dithiothreitol were 0.1 μM and 24 μM, respectively. After equilibrating, the substrate was added (30 μl of a stock solution in acetonitrile) and the solution mixed for 10 sec. before monitoring fluorescence change. Antibody rates were corrected by subtracting the rate of cleavage in the absence of Fab.
(§3) The reaction kinetics are consistent with the formation of a Michaelis complex (FIG. 6). […] Neither the uncleaved affinity-labeled antibody nor the iodoacetamide-alkylated antibody accelerated the rate of the thiolysis reaction above the background rate. The stoichiometry of product release corresponded to 1.0 coumarin to 1.0 Fab-SH. […]

[5] = target: T4, MOPC315 IgA Fab fragment, thiolated Fab labeled with bromoketone 4 (thiol tethered at tyrosine 34L) (Mus musculus, UniProt P01729+P01822); experiment: Ester cleavage assay; assay type: biochemical
T4 construct: Fab fragment, generated by treating the reduced and alkylated IgA with papain; made in house
T4 sequence (P01822 19-137): as the sequence (P01822 19-137) above
T4 sequence (P01729 20-129): as the sequence (P01729 20-129) above
T4 sequence (P01878 1-100 partner limits assumed): as the sequence (P01878 1-100 partner limits assumed) above
T4 sequence (P01844 whole entry partner, the tested form may be a part): as the sequence (P01844 whole entry partner, the tested form may be a part) above
Procedure: as §2, §3

Compound	% Fab labeled (without DNP-glycine) [1] [%]	% Fab labeled (with DNP-glycine) [1] [%]	further results
O=C(CBr)CCSc1ccc([N+](=O)[O-])cc1[N+](=O)[O-] [compound 3, 1-Bromo-2-oxo-4-(S-DNP)-mercaptobutane]	0	0	–
O=CCCCSSCCNc1ccc([N+](=O)[O-])cc1[N+](=O)[O-] [compound 2]	95	10	label incorporated [1]: over 90%; non-specific labeling [1]: less than 10%
O=CCCSSCCNc1ccc([N+](=O)[O-])cc1[N+](=O)[O-] [compound 1, (N-2,4-Dinitrophenyl)-2-aminoethyl 3-oxopropyl disulfide]	22	5	–
O=C(O)CNc1ccc([N+](=O)[O-])cc1[N+](=O)[O-] [DNP-glycine]	–	–	Kd [2]: 3.33 µM; KA [3]: 200000 M⁻¹; Ki [4]: 8 µM
CC(=O)Oc1ccc([N+](=O)[O-])cc1[N+](=O)[O-] [DNP-acetate]	–	–	hydrolysis of ester by thiolated Fab [5]: did not hydrolyze
O=C(CBr)CCCSc1ccc([N+](=O)[O-])cc1[N+](=O)[O-] [compound 4, 1-Bromo-2-oxo-5-(S-DNP)-mercaptopentane]	85	0	label incorporated [1]: over 90%; non-specific labeling [1]: less than 10%
O=C(CCNc1ccc([N+](=O)[O-])cc1[N+](=O)[O-])Oc1ccc2ccc(=O)oc2c1 [ester 14, (N-DNP)-3-Aminopropanoic acid 7-hydroxycoumarin ester]	–	–	acceleration of cleavage, factor over the cleavage reaction in equimolar dithiothreitol ([4]; pH 7.0, 10° C.): 6×10^4
O=C(CBr)CCCCSc1ccc([N+](=O)[O-])cc1[N+](=O)[O-] [compound 5, 1-Bromo-2=oxo-6-(S-DNP)-mercaptohexane]	15	0	–
